According to ChEMBL document CHEMBL1123573, “Design and synthesis of peptide derivatives of a 3-deoxy-D-manno-2-octulosonic acid (KDO) analogue as novel antibacterial agents acting upon lipopolysaccharide biosynthesis” (1987):
Converted amounts (≈) assume the structure as drawn.

Legend:
Format in all cases: functional
Escherichia coli = experiment: In vitro testing for minimum inhibitory concentration against Escherichia coli ATCC 11303.
Salmonella typhimurium [1] = experiment: In vitro testing for minimum inhibitory concentration against Salmonella Typhimurium LT2 168
Salmonella typhimurium [2] = experiment: In vitro testing for minimum inhibitory concentration against Salmonella Typhimurium SL 1102
[3] = Salmonella enterica subsp. enterica serovar Typhimurium

Row | Compound | MIC (Escherichia coli) | MIC (Salmonella typhimurium [1]; [3]) | MIC (Salmonella typhimurium [2]; [3]) | MIC (Salmonella typhimurium [1]; Salmonella enterica) | MIC (Salmonella typhimurium [2]; Salmonella enterica)
1 | GENTAMICIN | < 0.05 µM | < 0.05 µM | < 0.05 µM | – | –
2 | CC1(C)S[C@@H]2[C@H](NC(=O)[C@H](N)c3ccccc3)C(=O)N2[C@H]1C(=O)O [AMPICILLIN] | 1 µM (≈ 0.349 µg/mL) | – | – | 0.3 µM (≈ 0.105 µg/mL) | 2 µM (≈ 0.699 µg/mL)
3 | CC(N)C(=O)NCC(O)C1OC(C(=O)O)CC(O)C1O (stereo not given) | > 2000 µM | – | – | > 2000 µM | > 2000 µM
4 | C[C@H](N)C(=O)N[C@@H](C)C(=O)NC[C@H](O)[C@H]1O[C@H](C(=O)O)C[C@@H](O)[C@H]1O | 4 µM (≈ 1.45 µg/mL) | – | – | 60 µM (≈ 21.8 µg/mL) | 4 µM (≈ 1.45 µg/mL)
5 | CSCCC(N)C(=O)NCC(O)C1OC(C(=O)O)CC(O)C1O (stereo not given) | > 2000 µM | – | – | > 2000 µM | > 2000 µM
